This is an account of results in patent publication US20050065086A1, “Use of peptide-drug conjugation to reduce inter-subject variability of drug serum levels” (New River Pharmaceuticals Inc., priority 2002, published 2005).

In general, solubility refers to the dissolved amount per volume that the medium holds. The low end stands for a poorly soluble substance, the high end for a readily soluble substance.

Series [1] deals with Caco-2 Cells. The conditions noted are these: unlike rapid and efficient in vivo absorption; cited from earlier work.
The nature of another series: physchem. Format: physicochemical. The settings on record: pH 7.4, aqueous buffer. From the text:
The enhanced absorption may be explained by the use of an additional transport mechanism, such as one of the peptide transporters.

In series [2] the test system is Caco-2 Cells. The conditions noted are these: cited from earlier work.
The conditions of series [3]: after oral administration (Gidal and coworkers); cited from earlier work.

As to `N[C@@H](Cc1ccc(O)c(O)c1)C(=O)O` [L-dopa], the “transport by Caco-2 cells” value in the series with Caco-2 Cells [1] is “do not transport L-dopa very well”.
As for `N[C@@H](Cc1cc(I)c(Oc2cc(I)c(O)c(I)c2)c(I)c1)C(=O)O` [T4, sodium, levothyroxine sodium], the solubility in the series “physchem” turned out to be 6.9 µg/mL.
On to `NS(=O)(=O)c1cc2c(cc1Cl)N=CNS2(=O)=O` [chlorothiazide], for which the permeability entry in the series on Caco-2 Cells [2] (Caco-2) is given as “low”. For the same compound, the absorption in humans result in the series with Caco-2 Cells [2] is recorded as “low”.
Turning to `NCC1(CC(=O)O)CCCCC1` [gabapentin], the “intersubject CV for the AUC” value in series [3] is listed as 22.5%.
